Measured values: patent US10188651B2, “Methods of treating sleep disorders” (Melior Pharmaceuticals II, LLC, priority 2013, dated 2019)

Columns and labels:
[1] = system: 6-OHDA unilaterally lesioned Sprague-Dawley rats; experiment: Abnormal involuntary movements (AIMs) test, Examples 1 and 2; settings: for abnormal involuntary movements (AIMs) score compared to vehicle-treated rats: once daily, scored 60 min after injection, L-dopa 6 mg/kg for 5 days, Sydnocarb 10 and 30 mg/kg, no combination; for effect of test drug on L-dopa-induced AIMs (dyskinesia): L-dopa day 1 (50 mg/kg), L-dopa and test drug day 2
Protocol: Female, Sprague-Dawley rats (Charles River Laboratories) at 7 to 8 weeks of age were used. Animals were assigned randomly to treatment groups. The diet consisted of standard rodent chow and water ad libitum.
6-OHDA was formulated at 5 mg/ml solution in 0.03% ascorbic acid in sterile 0.9% NaCl. Three μL of 6-OHDA was injected into the median forebrain bundle at the following stereotaxic coordinates from bregma: Anteroposterior (A/P) −4.0 mm; mediolateral (M/L) −1.3 mm; ventrodorsal (V/D) −8.0 mm with reference to the top of the skull.
After lesion, rats were allowed to recover for two weeks and then tested for amphetamine-induced rotational activity. Animals were treated with 25 mg/kg amphetamine in saline and recorded in an open-field chamber for 90 minutes. Only rats rotating greater than 4 times per minute were used in efficacy studies. After an additional one week, rats were treated with L-dopa (Isotec IY0630) at various times and measured for the appearance of abnormal involuntary movements (AIMs).
The AIMs test was carried out as follows: 1) weigh rat and inject with L-dopa/benserazide (10 ml/kg, ip); may be a single injection per day over multiple days; administration of a test compound or reference compound may also be included; 2) place rat in empty cage, start video recording; 3) AIMs were assessed in four areas: a) onset of symptoms-latency (seconds) to first visual AIM as defined below; b) 30 minute AIM score; c) 60 minute AIM score; and d) number of left rotations from 30-60 minutes; 4) AIMs were scored and recorded on a scale from 0 to 4: i) absent; ii) slight left forelimb dystonia with grooming; iii) excessive left forelimb dystonia with grooming; iv) left forelimb dystonia with left circling; and v) continuous left circling with or without grooming; 5) record any unusual clinical signs; and 6) after 60 minutes, stop recording, place rat back into home cage.
Sixty minutes after injection, abnormal involuntary movements (AIMs) were scored.
Rats receiving a unilateral 6-OHDA lesion as described above were treated with L-dopa (day 1, 50 mg/kg) and then L-dopa and test drug (day 2, Sydnocarb or Tesofensine).

[2] = system: 6-OHDA-lesioned rats; experiment: Forelimb adjusting step (FAS) test; assay type: in vivo, rat
Protocol: In 6-OHDA-lesioned rats, L-dopa administration also elicits a therapeutically beneficial anti-akinetic activity that can be measured by the forelimb adjusting step (FAS) test. To determine the effect of Sydnocarb on L-dopa efficacy on this motor function, 6-OHDA-lesioned rats were treated with L-dopa in combination with Sydnocarb at 10 mg/kg and assessed by the FAS test (see, FIG. 3).
For three consecutive days, the experimenter that performed the study handled the rats so they were familiar with the experimenter's grip: the rat was held with one hand fixing the hindlimbs and slightly raising the hind part above the surface; the other hand fixed the forelimb not to be monitored; the forelimb to be monitored was touching the table; the animal was moved slowly sideways (approx. 5 sec for 90 cm), first in the forehand and then in the backhand; and these steps were repeated for the other forelimb. Forehand is defined as compensating movement toward the body and backhand is defined as compensating movement away from the body.
Each stepping test consisted of six trials for each forepaw, alternating between directions both forehand and backhand as follows: the rat was held in the same position as described above with one paw touching the table; the rat was moved slowly sideways (approx 5 sec for 90 cm), first in the forehand and then in the backhand; the number of adjusting steps for both paws in the forehand and back hand directions of movement were counted and recorded; and the sequence of testing was left paw forehand and backhand adjusting stepping, followed by right paw backhand and forehand directions. The rat was returned to its home cage and the sequence repeated with the second rat in the cage. Five more trials were performed for each rat, placing the rats back in their home cage between trials.
This portion of the experiment was run 3-4 weeks post 6-OHDA lesion, and at least 1 week post rotations testing as follows: prior to the start of dosing, rats were trained and baselines performed as above; preparation of L-dopa with benserazide (concentrations are for i.p. injection, 10 ml/kg): a) L-dopa dissolved in saline at 1.2 mg/ml; and b) benserazide dissolved in saline at 0.4 mg/ml; preparation of sydnocarb 10 mg/kg (concentrations are for i.p. injection, 10 ml/kg): a) sydnocarb dissolved in 0.5% methylcellulose, 0.2% tween 80 in dH2O at 1 mg/ml.
Rats were weighed and injected with L-dopa/benserazide (12 mg/kg/4 mg/kg). FAS were run approximately 60 minutes post L-dopa/benserazide dose. Rats were returned to home cage.
Rats were weighed and injected with sydnocarb 10 mg/kg or vehicle (0.5% methylcellulose, 0.2% tween 80 in dH2O), 30 minutes prior to L-dopa/benserazide dosing. The rest of the study was continued as described in Day 1.
Data were represented as percent by summing steps (forward and backhand) of the lesioned forelimb and dividing by the sum of the steps of the intact forelimb and multiplying by 100, giving a measure of the degree of forepaw disability. A similar calculation was obtained for percent of lesioned forelimb, giving a measure of gain of function.
Sprague-Dawley rats (6/group) were injected unilaterally with 6-OHDA as described above. […] Forepaw adjusting steps were scored and graphed as a percent of the intact (unaffected) forelimb. […] (**p<0.01, p=0.058, One-way ANOVA with post-hoc t-test compared to veh+veh). […] Moreover, Sydnocarb may allow the use of lower therapeutic doses of L-dopa, thereby reducing potential L-dopa-induced side effects.
L-dopa was administered at a dose level of 6 mg/kg (ip) along with benserazide (ip; 2 mg/kg). […] For these 6 mg/kg L-dopa studies, rats were combined from two previous L-dopa/Sydnocarb studies and allowed a 3-week wash out period.
After an additional one week, baseline FAS was measured and rats were treated with L-dopa at 6 mg/kg and Sydnocarb at 3 and 10 mg/kg (ip) for 12 days. […]

[3] = system: unilaterally lesioned 6-OHDA rats; experiment: Axial, limb and orolingual (ALO) AIMs rating, chronic dosing
Protocol: L-dopa was administered at a dose level of 12 mg/kg (ip) along with benserazide (ip; 4 mg/kg). Sydnocarb (10 or 30 mg/kg, ip), amantadine (40 mg/kg ip), or vehicle was administered 30 minutes prior to L-dopa/benserazide. As a “priming” step, L-dopa was administered daily by itself for 1 week after the amphetamine rotation wash-out period. Subsequently, Sydnocarb, along with L-dopa, was dosed daily for an additional 12 days.
After treatment, rats were placed in a confined chamber and monitored for axial, limb, and orolingual AIMs every 20-30 minutes for 2 hours as follows:
For the first minute, AIMs were assessed in three areas: • a. Axial: dystonic posturing of the neck and torso in a twisted manner directed toward the side of the body contralateral to the lesion; • b. Forelimb: rapid, purposeless movements of the forelimb located on the side of the body contralateral to the lesion; and; • c. Orolingual: repetitive openings and closings of the jaw and tongue protrusions occurring at times when the rats are not chewing or knowing on food or other objects.
AIMs were scored and recorded on a scale from 0 to 4: • 0=not present; • 1=present for less than 50% of the Observation period; • 2=present for 50% or more of the observation period; • 3=present for the entire observation period but interrupted by a loud stimulus (a tap on the cage); and • 4=present for the entire observation period and not interrupted by a loud stimulus.
For the second minute, contralateral rotations, defined as complete 360 turns away from the lesioned side of the brain, were tallied.
Ipsilateral rotations were counted as negative numbers and thus, deducted from the total contralateral rotations.
For each AIMs subcategory, the scores were summed for the entire testing period.
After an additional one week, baseline AIMs were measured and rats were treated with L-dopa at 12 mg/kg and Sydnocarb at 10 and 30 mg/kg (ip) for 12 days. On days 1, 8, 10, and 12, AIMs were scored every 20 minutes for 2 hours and graphed as a sum of axial, limb, and orolingual (ALO) abnormal movements (FIG. 6).
Sydnocarb was administered at 3 mg/kg (ip) to 6-OHDA-lesioned rats once per day for 12 days.
Sprague-Dawley rats (3/group) were injected unilaterally with 6-OHDA as described herein. Two weeks later, rats were tested for amphetamine-induced rotation activity to verify the dopaminergic lesion. After an additional six weeks, baseline AIMs were measured and rats were treated with Sydnocarb at 3 mg/kg (ip) for 12 days. No L-dopa was administered in this experiment. On days 5 and 12, AIMs were scored at 30, 90, and 150 minutes post-dose and graphed as a sum of axial, limb, and orolingual (ALO) abnormal movements (FIG. 11).

[4] = equimolar doses, cited from earlier work
[5] = humans and animals; cited from earlier work
[6] = humans; cited from earlier work
[7] = system: noradrenaline reuptake; settings: rat synaptosomes; Erdö et al. 1981; cited from earlier work
[8] = biological target: DA transporter (DAT) (Homo sapiens, UniProt Q01959); settings: Gruner et al. 2011; cited from earlier work
Chain of DA transporter (DAT) (Q01959 whole entry, species assumed): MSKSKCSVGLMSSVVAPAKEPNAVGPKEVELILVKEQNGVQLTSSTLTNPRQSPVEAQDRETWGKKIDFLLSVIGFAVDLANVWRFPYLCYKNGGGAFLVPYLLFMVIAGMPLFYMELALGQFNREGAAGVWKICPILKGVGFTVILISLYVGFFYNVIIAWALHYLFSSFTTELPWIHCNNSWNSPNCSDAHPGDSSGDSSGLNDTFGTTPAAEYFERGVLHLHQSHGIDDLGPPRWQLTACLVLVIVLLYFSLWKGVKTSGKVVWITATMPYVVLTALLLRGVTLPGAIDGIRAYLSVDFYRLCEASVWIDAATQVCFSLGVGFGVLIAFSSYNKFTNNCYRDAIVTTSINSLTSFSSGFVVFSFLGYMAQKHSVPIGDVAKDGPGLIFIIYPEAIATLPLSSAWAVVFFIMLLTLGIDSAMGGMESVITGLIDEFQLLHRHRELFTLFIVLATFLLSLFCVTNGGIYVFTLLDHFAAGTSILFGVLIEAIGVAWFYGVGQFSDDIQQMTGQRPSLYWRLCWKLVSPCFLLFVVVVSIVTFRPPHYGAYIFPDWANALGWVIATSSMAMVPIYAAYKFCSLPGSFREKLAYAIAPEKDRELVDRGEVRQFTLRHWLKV

[9] = Gruner et al. 2011; cited from earlier work
[10] = system: C57Bl/6 mice; experiment: Mouse electroencephalogram, time awake; assay type: in vivo; settings: intraperitoneal injection 4 hours after lights-on
Protocol: Electroencephalographic data were obtained in C57Bl/6 mice chronically implanted with electrodes to monitor brain and muscular activity. The percent time spent awake was evaluated following intraperitoneal injections of Sydnocarb 4 hours after lights-on, when mice are predominantly sleeping.

[11] = system: extracellular DA; settings: rat striatum and nucleus accumbens; cited from earlier work
[12] = system: C57Bl/6 mice treated with MPTP; experiment: Open Field Activity assay after MPTP; assay type: in vivo, mouse; settings: compound 30 min prior to MPTP (3x20 mg/kg) and daily for 4 days; measured day 5, 30 min open field
Protocol: An Open Field Activity assay was performed in which locomotor and sensorimotor parameters were evaluated in an automated open-field apparatus. 1-methyl-4-phenyl-1,2,3,6-tetrahydropyridine (MPTP) injections (3×20 mg/kg) were performed in C57Bl/6 mice at two-hour intervals (final dose of MPTP=60 mg/kg). Mice were treated with the compound 30 minutes prior to MPTP and daily for 4 days. Locomotor activity was monitored on day 5, thirty minutes after administration of test compound. Locomotor activity was measured in an automated open-field (MedAssociates) for 30 minutes. The following parameters were measured: 1) horizontal distance traveled, 2) number of rearing events and 3) stereotypic behavior.

[13] = L-dopa 12 mg/kg and Sydnocarb 10 mg/kg ip (day 2)

N[C@@H](Cc1ccc(O)c(O)c1)C(=O)O [L-dopa]
abnormal involuntary movements (AIMs) score compared to vehicle-treated rats [1]: significantly higher AIMs scores | abnormal involuntary movements (AIMs) caused by L-dopa ([1]; two-day treatment with L-dopa, 50 mg/kg): increase in abnormal involuntary movements | FAS, % affected paw compared to baseline ([2]; L-dopa 6 mg/kg ip alone, 12 days): slight increase in adjusting steps compared to baseline | forepaw adjusting steps, percent of the intact forelimb, compared to vehicle ([2]; L-dopa 12 mg/kg alone): slight increase in steps compared to vehicle | sum of ALO AIMs compared to baseline ([3]; L-dopa 12 mg/kg ip with benserazide, chronic dosing): increase in AIMS compared to baseline

CC(Cc1ccccc1)[n+]1cc([N-]C(=O)Nc2ccccc2)on1 (stereo not drawn) [Sydnocarb, 3-(β-phenylisopropyl)-N-phenylcarbamoylsydnonimine]
markers of neurotoxicity relative to D-AMPH ([4]; DA depletion, reactive oxygen species, lipid peroxidation): smaller changes in the markers of neurotoxicity | hyperlocomotion and stereotypy relative to D-AMPH [4]: less hyperlocomotion and stereotypy | metabolite formed [5]: metabolized to D-amphetamine | toxic episodes and abuse potential [6]: neither significant toxic episodes nor abuse potential have been reported | noradrenaline reuptake [7]: attenuates noradrenaline reuptake | effect of test drug on L-dopa-induced AIMs (dyskinesia) [1]: ameliorates L-dopa-induced dyskinesia | reduction of L-dopa-induced AIMs ([1]; Sydnocarb administered 30 min after L-dopa, seen 30 and 60 minutes after L-dopa administration): approximately 40% | abnormal involuntary movements (AIMs) score compared to vehicle-treated rats [1]: did not cause significant AIMs | DAT activity [8]: has DAT activity | rebound hypersomnolence [9]: lacks the rebound hypersomnolence | percent time spent awake compared to vehicle controls [10]: dose-dependently increased time awake | FAS adjusting steps compared to vehicle ([2]; L-dopa 6 mg/kg and Sydnocarb 3 mg/kg ip for 12 days, days 5 and 12): increase in adjusting steps compared to vehicle | FAS adjusting steps compared to vehicle (L-dopa alone) ([2]; L-dopa 6 mg/kg and Sydnocarb 10 mg/kg po for 12 days, day 12, 60 min post-dose): slight increase, and importantly no decrease, in adjusting steps | forepaw adjusting steps as percent of the intact forelimb [2, 13]: ~100% | forepaw adjusting steps, percent of the intact forelimb, compared to vehicle [2, 13]: significant increase | adjusting step scores compared to L-dopa alone ([2]; Sydnocarb 10 mg/kg with L-dopa): increased scores compared to L-dopa alone | extracellular DA increase compared with D-AMPH [11]: slower and more gradual increase in extracellular DA | vertical activity (rearing events) [12]: prevent decrease in vertical activity | sum of ALO AIMs compared to vehicle ([3]; L-dopa 12 mg/kg and Sydnocarb 10 and 30 mg/kg ip for 12 days, days 1, 8, 10, 12): decrease in AIMs compared to vehicle | sum of ALO AIMs compared to vehicle ([3]; L-dopa 12 mg/kg and Sydnocarb 10 and 30 mg/kg po for 12 days, days 5 and 12): decrease in AIMs compared to vehicle | AIMs scores relative to L-dopa treatment ([3]; Sydnocarb 3 mg/kg ip for 12 days, no L-dopa): approximately 20 times lower | sum of ALO AIMs, Sydnocarb alone ([3]; Sydnocarb 3 mg/kg ip for 12 days, no L-dopa, days 5 and 12): nominal AIMs

CCOC[C@@H]1[C@@H](c2ccc(Cl)c(Cl)c2)C[C@@H]2CC[C@H]1N2C [Tesofensine]
effect of test drug on L-dopa-induced AIMs (dyskinesia) [1]: had no affect on AIMs | vertical activity (rearing events) [12]: prevent decrease in vertical activity
